According to article PMC2219390 (The Journal of General Physiology, 1996):
Several values for one entry are separate records, joined by “and”; a condition that tells them apart may be missing. Identical values can stand only once. Like-named read-outs stand apart in the source and are kept apart here.

How the values were obtained:
[1] = Fraction of uncharged molecules at pH 7.4; format: physicochemical
[2] = test system: rat brain voltage-dependent sodium channels (BTX-modified); format: biochemical
[3] = Fig. 5 A, one channel, +60 mV, low-Kd period

uncharged molecules [1]	Structure (SMILES)	Measured FO2 (fractional time in the high affinity conformation) ([2]; 0.4 mM QX-314, +60 mV, six channels, 3.66 h)	Measured FO2 (fractional time in the high affinity conformation) ([2]; 3.0 mM QX-314, +60 mV, two channels, 4.32 h)	block of the small subconductance channel state (~6 pS) ([2]; 30 mM lidocaine (0.2 M NaCl) or 0.4 mM QX-314 (0.5 M NaCl), Fig. 7)	koff (amplitude distribution, beta function fit) [2, 3]	kon (amplitude distribution, beta function fit) [2, 3]	koff ([2]; Table I A, symmetrical 0.5 M NaCl, 160mV as printed, channels a, b, c)	kon rate relative to lidocaine ([2]; low-Kd period, Table I part B)
~ 14%	CCN(CC)CC(=O)Nc1c(C)cccc1C [lidocaine]	–	–	–	–	–	–	–
–	CC[N+](CC)(CC)CC(=O)Nc1c(C)cccc1C [QX-314, lidocaine N-ethyl]	0.655	0.983	did not block	238 s⁻¹	896000 M⁻¹ s⁻¹	238 s⁻¹ and 253 s⁻¹ and 291 s⁻¹ and 256 s⁻¹	about six times lower
